Results taken from US10183949B2, “Pyrimidinone derivative having autotaxin-inhibitory activity” (The University of Tokyo, priority 2014, dated 2019).

Target: T1, Human autotaxin enzyme (Homo sapiens, UniProt Q13822)
T1 construct: purchased R&D System
Assay: Evaluation of autotaxin inhibitor, 18:0 Lyso PC / choline assay (Test Example 2)
Assay type: biochemical
Details: human autotaxin enzyme, 18:0 Lyso PC substrate, choline assay, room temperature 2 hours; read-out: Inhibitor activity (IC50)
Experimental: Solution B containing 100 mM Tris-HCl buffer (pH7.5), 150 mM NaCl, 5 mM MgCl2, and 0.05% Triton X-100 was prepared. Human autotaxin enzyme (purchased from R&D System) was diluted with Solution B, and 2.5 μl of which was added to a solution of test compound in DMSO. Furthermore, 2.5 μl of 200 μM 18:0 Lyso PC (purchased from Avanti Polar Lipids) in Solution B was added and allowed to react at room temperature for 2 hours. After completion of the reaction, 15 μl of the coline assay reagent. (100 mM Tris-HCl buffer (pH7.5), 5 mM. MgCl2, 77 μg/ml coline oxidase, 10 μg/ml peroxydase, 25μM 10-acetyl-3,7-dihydroxyphenoxazine, and excess autotaxin inhibitor) was added and allowed to react at room temperature for 20 minutes. The fluorescent dye Resorufin, which was produced by the reaction, was detected. The fluorescence was detected using ViewLux
(PerkinElmer, Inc.) with a excitation wavelength of 531 nm and a fluorescence wavelength of 598 nm.
The percent inhibition of the test compound was calculated by assuming the sample with no test compound as 0% inhibition and the sample with no enzyme as 100% inhibition, and the percent inhibitions at different concentrations of the test compound were plotted to obtain a concentration-dependent curve.

Row | Structure (SMILES) | IC50 [nM]
1 | CCCCCc1nc(-c2ccc(Cl)cc2)cc(=O)n1CC(=O)NC(C(=O)O)c1ccc(O)cc1 (stereo not shown) [Compound I-0060] | 10 to 100
2 | CCCCCc1nc(-c2ccc(Cl)cc2)cc(=O)n1CC(=O)NC(CC(=O)O)c1ccccc1 (stereo not shown) [Compound I-0061] | 10 to 100
3 | CCCCCc1nc(-c2ccc(Cl)cc2)cc(=O)n1CC(=O)N1CCC(C(=O)O)C1 (stereo not shown) [Compound I-0066] | ≥ 1000
4 | CCCCCc1nc(-c2ccc(Cl)cc2)cc(=O)n1CC(=O)N1CCOC[C@H]1C(=O)O [Compound I-0067] | 100 to 1000
5 | CCCCCc1nc(-c2ccc(Cl)cc2)cc(=O)n1CC(=O)NC1(C(=O)O)CC1 [Compound I-0069] | 10 to 100
6 | CCCCCc1nc(-c2ccc(Cl)cc2)cc(=O)n1CC(=O)NCC(C)(C)C(=O)O [Compound I-0070] | < 10
7 | CCCCCc1nc(-c2ccc(Cl)cc2)cc(=O)n1CC(=O)N[C@H]1C[C@H](C(=O)O)C1 [Compound I-0071] | < 10
8 | CCCCCc1nc(-c2ccc(Cl)cc2)cc(=O)n1CC(=O)NC12CCC(C(=O)O)(CC1)CC2 [Compound I-0072] | < 10
9 | CCCCCc1nc(-c2ccc(Cl)cc2)cc(=O)n1CC(=O)N[C@@H]1CN2CCC1CC2 [Compound I-0078] | ≥ 1000
10 | CCCCCc1nc(-c2ccc(Cl)cc2)cc(=O)n1CC(=O)NC1CCS(=O)(=O)C1 (stereo not shown) [Compound I-0081] | 10 to 100
11 | CCCCCc1nc(-c2ccc(Cl)cc2)cc(=O)n1CC(=O)Nc1ncc(C#N)s1 [Compound I-0083] | ≥ 1000
12 | CCCCCc1nc(-c2ccc(Cl)cc2)cc(=O)n1CC(=O)NC1CCOCC1 [Compound I-0086] | 100 to 1000
13 | CCCCCc1nc(-c2ccc(Cl)cc2)cc(=O)n1CC(=O)N1CCC(F)(F)CC1 [Compound I-0087] | 10 to 100
14 | CCCCCc1nc(-c2ccc(Cl)cc2)cc(=O)n1CC(=O)NCC(O)Cc1ccccc1 (stereo not shown) [Compound I-0088] | 10 to 100
15 | CCCCCc1nc(-c2ccc(Cl)cc2)cc(=O)n1CC(=O)N1CC2(COC2)C1 [Compound I-0091] | ≥ 1000
16 | CCCCCc1nc(-c2ccc(Cl)cc2)cc(=O)n1CC(=O)N1[C@H](C)COC[C@@H]1C [Compound I-0095] | 10 to 100
17 | CCCCCc1nc(-c2ccc(Cl)cc2)cc(=O)n1CC(=O)NCC(C)(C)O [Compound I-0098] | 10 to 100
18 | CCCCCc1nc(-c2ccc(Cl)cc2)cc(=O)n1CC(=O)N[C@@H](CCc1ccccc1)C(=O)O [Compound I-0101] | 10 to 100
19 | CCCCCc1nc(-c2ccc(Cl)cc2)cc(=O)n1CC(=O)NCCc1ccccc1 [Compound I-0103] | 10 to 100
20 | CCCCCc1nc(-c2ccc(Cl)cc2)cc(=O)n1CC(=O)NC1CN2CCC1CC2 (stereo not shown) [Compound I-0104] | 100 to 1000
21 | N#CCCCNc1nc(-c2ccc(C#N)cc2)cc(=O)n1Cc1ccccc1 [Compound I-0105] | 100 to 1000
22 | N#CCNc1nc(-c2ccc(C#N)cc2)cc(=O)n1Cc1ccccc1 [Compound I-0106] | ≥ 1000
23 | COC(=O)Cn1c(CCCC(F)(F)F)nc(-c2ccc(Cl)cc2)cc1=O [Compound I-0109] | 10 to 100
24 | O=C(O)c1cccc(Cn2c(CCCC(F)(F)F)nc(-c3ccc(Cl)cc3)cc2=O)c1 [Compound I-0112] | 10 to 100
25 | CCCCCc1nc(-c2ccc(Cl)cc2)cc(=O)n1CC(=O)N1CCC(C(=O)OC)CC1 [Compound I-0113] | 10 to 100
26 | NC(=O)C1CCN(C(=O)Cn2c(CCCC(F)(F)F)nc(-c3ccc(Cl)cc3)cc2=O)CC1 [Compound I-0118] | 10 to 100
27 | CNC(=O)CNC(=O)Cn1c(CCCC(F)(F)F)nc(-c2ccc(Cl)cc2)cc1=O [Compound I-0126] | 100 to 1000
28 | CCNC(=O)N1CCC(NC(=O)Cn2c(CCCC(F)(F)F)nc(-c3ccc(Cl)cc3)cc2=O)CC1 [Compound I-0128] | 10 to 100

The next lines start with the values.

Row | IC50 [nM] | Structure (SMILES)
29 | 10 to 100 | CCCCCc1nc(-c2ccc(Cl)cc2)cc(=O)n1CC(=O)NCC(=O)N1CCC(C(=O)O)CC1 [Compound I-0059]
30 | 10 to 100 | CCCCCc1nc(-c2ccc(Cl)cc2)cc(=O)n1CC(=O)N(CCC(=O)O)C1CCCC1 [Compound I-0062]
31 | < 10 | CCCCCc1nc(-c2ccc(Cl)cc2)cc(=O)n1CC(=O)NC1CCC(C(=O)O)CC1 (stereo not shown) [Compound I-0063]
32 | < 10 | CCCCCc1nc(-c2ccc(Cl)cc2)cc(=O)n1CC(=O)NCCCCC(=O)O [Compound I-0064]
33 | 10 to 100 | CCCCCc1nc(-c2ccc(Cl)cc2)cc(=O)n1CC(=O)NCC(=O)O [Compound I-0065]
34 | ≥ 1000 | CCCCCc1nc(-c2ccc(Cl)cc2)cc(=O)n1CC(=O)N1CCCC1C(=O)O (stereo not shown) [Compound I-0068]
35 | < 10 | CCCCCc1nc(-c2ccc(Cl)cc2)cc(=O)n1CC(=O)NC1(C(=O)O)CCC1 [Compound I-0073]
36 | ≥ 1000 | CCCCCc1nc(-c2ccc(Cl)cc2)cc(=O)n1Cc1cccc(C(=O)OC)c1 [Compound I-0074]
37 | ≥ 1000 | CCCCCc1nc(-c2ccc(Cl)cc2)cc(=O)n1CC(=O)NC(CO)Cc1ccc(F)cc1 (stereo not shown) [Compound I-0075]
38 | 100 to 1000 | CCCCCc1nc(-c2ccc(Cl)cc2)cc(=O)n1CC(=O)N1CCOCC1c1ccccc1 (stereo not shown) [Compound I-0076]
39 | 100 to 1000 | CCCCCc1nc(-c2ccc(Cl)cc2)cc(=O)n1CC(=O)NC1(C#N)CCCCC1 [Compound I-0077]
40 | 10 to 100 | CCCCCc1nc(-c2ccc(Cl)cc2)cc(=O)n1CC(=O)NC(C)CC#N (stereo not shown) [Compound I-0079]
41 | 10 to 100 | CCCCCc1nc(-c2ccc(Cl)cc2)cc(=O)n1CC(=O)NCCC#N [Compound I-0080]
42 | 100 to 1000 | CCCCCc1nc(-c2ccc(Cl)cc2)cc(=O)n1CC(=O)NC1CCCNC1=O (stereo not shown) [Compound I-0082]
43 | 10 to 100 | CCCCCc1nc(-c2ccc(Cl)cc2)cc(=O)n1CC(=O)N1CCOCC1 [Compound I-0084]
44 | 10 to 100 | CCCCCc1nc(-c2ccc(Cl)cc2)cc(=O)n1CC(=O)NCC#N [Compound I-0085]
45 | 10 to 100 | CCCCCc1nc(-c2ccc(Cl)cc2)cc(=O)n1CC(=O)NC1(c2cccnc2)CC1 [Compound I-0089]
46 | 10 to 100 | CCCCCc1nc(-c2ccc(Cl)cc2)cc(=O)n1CC(=O)NC1(C#N)CC1 [Compound I-0090]
47 | 100 to 1000 | CCCCCc1nc(-c2ccc(Cl)cc2)cc(=O)n1CC(=O)N[C@@H](CO)Cc1ccccc1 [Compound I-0092]
48 | 10 to 100 | CCCCCc1nc(-c2ccc(Cl)cc2)cc(=O)n1CC(=O)NC1CCS(=O)(=O)CC1 [Compound I-0093]
49 | 10 to 100 | CCCCCc1nc(-c2ccc(Cl)cc2)cc(=O)n1CC(=O)NCCS(C)(=O)=O [Compound I-0094]

Row | IC50 [nM] | Structure (SMILES)
50 | 100 to 1000 | CCCCCc1nc(-c2ccc(Cl)cc2)cc(=O)n1CC(=O)NCCC(C)O (stereo not shown) [Compound I-0096]
51 | 100 to 1000 | CCCCCc1nc(-c2ccc(Cl)cc2)cc(=O)n1CC(=O)N[C@@H]1CCN(C(C)=O)C1 [Compound I-0097]
52 | ≥ 1000 | CCCCCc1nc(-c2ccc(Cl)cc2)cc(=O)n1CC(=O)Nc1cc(C2CC2)no1 [Compound I-0099]
53 | 100 to 1000 | CCCCCc1nc(-c2ccc(Cl)cc2)cc(=O)n1CC(=O)N1CCOC(c2ccccc2)C1 (stereo not shown) [Compound I-0100]
54 | 100 to 1000 | CCCCCc1nc(-c2ccc(Cl)cc2)cc(=O)n1CC(=O)NCCCc1ccccc1 [Compound I-0102]
55 | ≥ 1000 | COc1ccc(Cn2c(-c3ccc(Cl)cc3)cc(=O)n(CC(=O)NC(Cc3ccccc3)C(=O)O)c2=O)cc1 (stereo not shown) [Compound I-0107]
56 | ≥ 1000 | Cn1c(=O)cc(-c2ccc(Cl)cc2)n(CCCC#N)c1=N [Compound I-0108]
57 | ≥ 1000 | O=C(O)Cn1c(CCCC(F)(F)F)nc(-c2ccc(Cl)cc2)cc1=O [Compound I-0110]
58 | 10 to 100 | COC(=O)c1cccc(Cn2c(CCCC(F)(F)F)nc(-c3ccc(Cl)cc3)cc2=O)c1 [Compound I-0111]
59 | 10 to 100 | CCCCCc1nc(-c2ccc(Cl)cc2)cc(=O)n1CC(=O)NC(C)(C)C(=O)OC [Compound I-0114]
60 | ≥ 1000 | N#CCCCn1c(-c2ccc(Cl)cc2)cc(=O)n(CC(=O)NC(Cc2ccccc2)C(=O)O)c1=O (stereo not shown) [Compound I-0115]
61 | 10 to 100 | N#CCCCOc1nc(-c2ccc(Cl)cc2)cc(=O)n1CC(=O)NC(Cc1ccccc1)C(=O)O (stereo not shown) [Compound I-0116]
62 | 10 to 100 | O=C(Cn1c(CCCC(F)(F)F)nc(-c2ccc(Cl)cc2)cc1=O)N(CCO)CCO [Compound I-0117]
63 | 10 to 100 | CC(O)CNC(=O)Cn1c(CCCC(F)(F)F)nc(-c2ccc(Cl)cc2)cc1=O (stereo not shown) [Compound I-0119]
64 | < 10 | O=C(Cn1c(CCCC(F)(F)F)nc(-c2ccc(Cl)cc2)cc1=O)NCc1cc(=O)[nH]o1 [Compound I-0120]
65 | 100 to 1000 | O=C(Cn1c(CCCC(F)(F)F)nc(-c2ccc(Cl)cc2)cc1=O)NCCN1CCNC1=O [Compound I-0121]
66 | 100 to 1000 | CC(C)(CNC(=O)Cn1c(CCCC(F)(F)F)nc(-c2ccc(Cl)cc2)cc1=O)N1CCOCC1 [Compound I-0122]
67 | 10 to 100 | N#CC1(NC(=O)Cn2c(CCCC(F)(F)F)nc(-c3ccc(Cl)cc3)cc2=O)CC1 [Compound I-0123]
68 | 10 to 100 | O=C(Cn1c(CCCC(F)(F)F)nc(-c2ccc(Cl)cc2)cc1=O)NCC1(CO)CC1 [Compound I-0124]
69 | 10 to 100 | C[C@@H]1COC[C@H](C)N1C(=O)Cn1c(CCCC(F)(F)F)nc(-c2ccc(Cl)cc2)cc1=O [Compound I-0125]
70 | 100 to 1000 | CN(C)C(=O)CNC(=O)Cn1c(CCCC(F)(F)F)nc(-c2ccc(Cl)cc2)cc1=O [Compound I-0127]
